Experimental data: US8574871B2, “Genetically modified yeasts for the production of homogenous glycoproteins” (GLYCODE, priority 2007, dated 2013)

Experiments:
alpha-1,2-mannosidase I = experiment: Mannosidase activity assay in yeast microsomes, with or without DMJ; type: biochemical, C. Elegans; conditions: 120 μM DMJ, triplicate (FIG. 6)
Procedure: (§1) Mannosidase activity is measured by incubating for 4 hours at 37° C., with 4 mM of p-nitrophenyl-α-D-mannopyranoside with 100-200 μg of proteins (from total proteins or sub-cellular fractions) in 0.1 M of PBS, pH 6.5+/−120 μM DMJ (alpha-1,2-mannosidase I inhibitor) +/−12 μM SW (specific inhibitor of mannosidase II). Absorbance is measured at 405 nm.
The Adèle and Edgar yeasts, positive for the insertion of the expression cassette of mannosidase I in the gene URA3, are tested for their mannosidase I biochemical activity. […] The experiment was conducted in triplicate. We may observe in the wild S. cerevisiae and S. pombe strains, a mannosidase activity non-inhibited by DMJ.

mannosidase II = target: T1, mannosidase II (Mus musculus, UniProt P27046, V673G); experiment: Mannosidase activity assay in Golgian yeast fractions, with or without swainsonine; type: biochemical; conditions: 12 μM SW (FIG. 9)
T1 construct: Amplification of a 3,453 by fragment; expressed in transfected cells; host or cells: S. cerevisiae and S. pombe with the TEF-promoter cassette integrated in LEU2 (strains Anaïs / Enrique); Golgi fractions
T1 sequence (P27046 1-1150 V673G): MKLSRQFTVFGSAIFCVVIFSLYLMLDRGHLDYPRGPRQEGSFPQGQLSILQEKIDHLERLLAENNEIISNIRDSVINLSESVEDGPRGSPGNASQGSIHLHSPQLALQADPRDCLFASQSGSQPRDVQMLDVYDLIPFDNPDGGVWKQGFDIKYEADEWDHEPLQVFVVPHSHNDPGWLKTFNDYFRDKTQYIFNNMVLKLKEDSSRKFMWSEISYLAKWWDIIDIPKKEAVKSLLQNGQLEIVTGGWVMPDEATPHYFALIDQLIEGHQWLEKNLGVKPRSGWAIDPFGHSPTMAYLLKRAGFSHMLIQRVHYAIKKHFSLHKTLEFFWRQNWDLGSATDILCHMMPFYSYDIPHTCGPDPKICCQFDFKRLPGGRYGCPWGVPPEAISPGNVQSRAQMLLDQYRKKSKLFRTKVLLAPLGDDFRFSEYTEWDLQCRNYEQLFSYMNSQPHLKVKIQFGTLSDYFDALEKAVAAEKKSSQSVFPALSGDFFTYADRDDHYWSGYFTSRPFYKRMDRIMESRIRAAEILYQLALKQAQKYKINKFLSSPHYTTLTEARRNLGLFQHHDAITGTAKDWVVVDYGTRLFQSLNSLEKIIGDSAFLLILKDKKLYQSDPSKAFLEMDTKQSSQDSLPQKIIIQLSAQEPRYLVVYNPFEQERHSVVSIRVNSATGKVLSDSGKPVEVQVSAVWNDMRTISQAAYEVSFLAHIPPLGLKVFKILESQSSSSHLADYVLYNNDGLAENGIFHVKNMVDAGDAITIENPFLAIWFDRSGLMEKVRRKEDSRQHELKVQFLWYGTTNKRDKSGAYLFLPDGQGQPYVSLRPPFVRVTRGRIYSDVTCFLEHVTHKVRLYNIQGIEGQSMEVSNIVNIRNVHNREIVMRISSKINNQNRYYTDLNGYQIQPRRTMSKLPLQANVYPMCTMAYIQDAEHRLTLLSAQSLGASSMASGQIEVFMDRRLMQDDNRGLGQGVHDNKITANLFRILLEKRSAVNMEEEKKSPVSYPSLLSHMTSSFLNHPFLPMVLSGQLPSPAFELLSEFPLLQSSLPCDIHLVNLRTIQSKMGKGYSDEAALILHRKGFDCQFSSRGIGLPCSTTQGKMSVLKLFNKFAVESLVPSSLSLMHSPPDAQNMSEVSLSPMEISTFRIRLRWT
Procedure: as §1
According to FIG. 9, we may observe in the parent S. cerevisiae and S. pombe strains a mannosidase activity insensitive to the inhibitory action of swainsonine. […] Further as, the measured mannosidase II activity is detected in Golgian yeast fractions, we may infer that this enzyme is properly expressed in the secretion route at the Golgian system.

Compound	inhibition of mannosidase activity by DMJ (alpha-1,2-mannosidase I; selected S. cerevisiae and S. pombe strains with mannosidase I cassette)	inhibition of mannosidase activity by DMJ (alpha-1,2-mannosidase I; wild S. cerevisiae and S. pombe strains)	inhibition of mannosidase activity by swainsonine (mannosidase II; parent S. cerevisiae and S. pombe strains)	inhibition of mannosidase activity by swainsonine (mannosidase II; selected S. cerevisiae and S. pombe strains with mannosidase II cassette)
OC[C@H]1NC[C@@H](O)[C@@H](O)[C@@H]1O [DMJ, deoxymannojirimycin]	significant inhibition	non-inhibited	–	–
O[C@H]1[C@H]2[C@H](O)CCCN2C[C@H]1O [swainsonine]	–	–	insensitive	significant inhibition
